From paper PMC4450297, “Screening Active Compounds from Garcinia Species Native to China Reveals Novel Compounds Targeting the STAT/JAK Signaling Pathway” (BioMed Research International, 2015)

Tests used:
Experiment in all cases: Cell panel screen (CellTiter-Glo)
Assay type in all cases: cell-based, human
[1] = test system: NCI-H28; conditions: NCI-H28 (Lung), 20 micromolar, 72 hrs
How it was run: (§1)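 Growth inhibition (%) was determined from luminescence proportional to cellular ATP after cells had been incubated with compound (20 μM final) for 72 h at 37°C, with matched DMSO controls and cell-free wells defining the range.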

[2] = test system: T47D; conditions: T47D (Breast), 20 micromolar, 72 hrs
How it was run: as §1

[3] = test system: HGC-27; conditions: HGC-27 (Stomach), 20 micromolar, 72 hrs
How it was run: as §1

[4] = test system: A704; conditions: A704 (Kidney), 20 micromolar, 72 hrs
How it was run: as §1

[5] = test system: CCF-STTG1; conditions: CCF-STTG1 (Brain), 20 micromolar, 72 hrs
How it was run: as §1

[6] = test system: C8166; conditions: C8166 (Leukemia), 20 micromolar, 72 hrs
How it was run: as §1

[7] = test system: Panc 03.27; conditions: Panc 03.27 (Pancreas), 20 micromolar, 72 hrs
How it was run: as §1

[8] = test system: TCCSUP; conditions: TCCSUP (Urinary bladder), 20 micromolar, 72 hrs
How it was run: as §1

[9] = test system: HT-1197; conditions: HT-1197 (Urinary bladder), 20 micromolar, 72 hrs
How it was run: as §1

[10] = test system: CW-2; conditions: CW-2 (Colon), 20 micromolar, 72 hrs
How it was run: as §1

[11] = test system: Colo 205; conditions: Colo 205, 20 micromolar, 72 hrs
How it was run: as §1

[12] = test system: NCI-H2347; conditions: NCI-H2347 (Lung), 20 micromolar, 72 hrs
How it was run: as §1

[13] = test system: MSTO-211-H; conditions: MSTO-211-H (Lung), 20 micromolar, 72 hrs
How it was run: as §1

[14] = test system: RL95; conditions: RL95 (Uterus), 20 micromolar, 72 hrs
How it was run: as §1

[15] = test system: BT-474; conditions: BT-474 (Breast), 20 micromolar, 72 hrs
How it was run: as §1

[16] = test system: NCI-H1694; conditions: NCI-H1694 (Lung), 20 micromolar, 72 hrs
How it was run: as §1

[17] = test system: ChaGo-K-1; conditions: ChaGo-K-1 (Lung), 20 micromolar, 72 hrs
How it was run: as §1

[18] = test system: NCI-H1770; conditions: NCI-H1770 (Lung), 20 micromolar, 72 hrs
How it was run: as §1

[19] = test system: NCI-H2405; conditions: NCI-H2405 (Lung), 20 micromolar, 72 hrs
How it was run: as §1

[20] = test system: ZR-75-30; conditions: ZR-75-30 (Breast), 20 micromolar, 72 hrs
How it was run: as §1

[21] = test system: HPAF-II; conditions: HPAF-II (Pancreas), 20 micromolar, 72 hrs
How it was run: as §1

[22] = test system: SW13; conditions: SW13 (Adrenal gland), 20 micromolar, 72 hrs
How it was run: as §1

[23] = test system: HCC1569; conditions: HCC1569 (Breast), 20 micromolar, 72 hrs
How it was run: as §1

[24] = test system: HCC1599; conditions: HCC1599 (Breast), 20 micromolar, 72 hrs
How it was run: as §1

[25] = test system: NCI-H524; conditions: NCI-H524 (Lung), 20 micromolar, 72 hrs
How it was run: as §1

[26] = test system: BT-549; conditions: BT-549 (Breast), 20 micromolar, 72 hrs
How it was run: as §1

[27] = test system: HCC1937; conditions: HCC1937 (Breast), 20 micromolar, 72 hrs
How it was run: as §1

[28] = test system: J82; conditions: J82 (Urinary bladder), 20 micromolar, 72 hrs
How it was run: as §1

[29] = test system: Bel-7402; conditions: Bel-7402 (Liver), 20 micromolar, 72 hrs
How it was run: as §1

[30] = test system: NCI-H1623; conditions: NCI-H1623 (Lung), 20 micromolar, 72 hrs
How it was run: as §1

[31] = test system: HEC-1-A; conditions: HEC-1-A (Uterus), 20 micromolar, 72 hrs
How it was run: as §1

[32] = test system: T98G; conditions: T98G (Brain), 20 micromolar, 72 hrs
How it was run: as §1

[33] = test system: A498; conditions: A498 (listed under Lung), 20 micromolar, 72 hrs
How it was run: as §1

[34] = test system: HCC1395; conditions: HCC1395 (Breast), 20 micromolar, 72 hrs
How it was run: as §1

[35] = test system: M059J; conditions: M059J (Brain), 20 micromolar, 72 hrs
How it was run: as §1

[36] = test system: C3A; conditions: C3A (Liver), 20 micromolar, 72 hrs
How it was run: as §1

Structure (SMILES)	Percent Inhibition [1] [%]	Percent Inhibition [2] [%]	Percent Inhibition [3] [%]	Percent Inhibition [4] [%]	Percent Inhibition [5] [%]	Percent Inhibition [6] [%]	Percent Inhibition [7] [%]	Percent Inhibition [8] [%]	Percent Inhibition [9] [%]	Percent Inhibition [10] [%]	Percent Inhibition [11] [%]	Percent Inhibition [12] [%]	Percent Inhibition [13] [%]	Percent Inhibition [14] [%]	Percent Inhibition [15] [%]	Percent Inhibition [16] [%]	Percent Inhibition [17] [%]	Percent Inhibition [18] [%]	Percent Inhibition [19] [%]	Percent Inhibition [20] [%]	further results
CC(C)=CCc1c(O)cc(O)c2c1O[C@]13C(=C[C@@H]4C[C@H]1C(C)(C)O[C@@]3(CC=C(C)C)C4=O)C2=O [GB35]	93	100	100	99	100	99	99	100	96	100	100	97	99	100	99	100	99	100	99	100	Percent Inhibition [21]: 100%; Percent Inhibition [22]: 100%; Percent Inhibition [23]: 100%; Percent Inhibition [24]: 100%; Percent Inhibition [25]: 100%; Percent Inhibition [26]: 100%; Percent Inhibition [27]: 100%; Percent Inhibition [28]: 99%; Percent Inhibition [29]: 99%; Percent Inhibition [30]: 100%; Percent Inhibition [31]: 100%; Percent Inhibition [32]: 100%; Percent Inhibition [33]: 93%; Percent Inhibition [34]: 100%; Percent Inhibition [35]: 100%; Percent Inhibition [36]: 98%
CC(C)=CCc1c(O)cc2oc3cc(O)c(O)c(CC=C(C)C)c3c(=O)c2c1O [Ge9]	97	94	97	96	99	99	97	99	97	99	98	89	98	98	97	99	97	98	96	99	Percent Inhibition [21]: 96%; Percent Inhibition [22]: -3%; Percent Inhibition [23]: 97%; Percent Inhibition [24]: 95%; Percent Inhibition [25]: 97%; Percent Inhibition [26]: 97%; Percent Inhibition [27]: 98%; Percent Inhibition [28]: 97%; Percent Inhibition [29]: 99%; Percent Inhibition [30]: 91%; Percent Inhibition [31]: 95%; Percent Inhibition [32]: 98%; Percent Inhibition [33]: 98%; Percent Inhibition [34]: 98%; Percent Inhibition [35]: -17%; Percent Inhibition [36]: 81%
CC(C)=CCc1c(O)cc2oc3ccc(O)cc3c(=O)c2c1O [Ge-1]	23	45	54	34	43	9	43	28	50	62	29	32	44	37	30	49	44	13	7	81	Percent Inhibition [21]: 28%; Percent Inhibition [22]: 57%; Percent Inhibition [23]: 52%; Percent Inhibition [24]: 54%; Percent Inhibition [25]: 42%; Percent Inhibition [26]: 20%; Percent Inhibition [27]: 11%; Percent Inhibition [28]: 38%; Percent Inhibition [29]: 19%; Percent Inhibition [30]: 9%; Percent Inhibition [31]: 26%; Percent Inhibition [32]: 46%; Percent Inhibition [33]: 54%; Percent Inhibition [34]: 55%; Percent Inhibition [35]: 24%; Percent Inhibition [36]: 32%
